Columns and labels:
[1] = Photophysical properties (absorbance, emission, quantum yield) in pH 7 buffer; assay type: physicochemical; conditions: for Quantum yield Φ: no metal ion, pH 7, 22° C., relative to fluorescein
Excerpt: General Procedure. Acetonitrile (MeCN) was dried over 3 Å molecular sieves. Triethylamine (Et3N) and chloroform (CHCl3) were purchased from Aldrich and used as received. 6-Carboxy-2′,7′-dichlorofluorescein-3′,6′-diacetatesuccinimidyl ester was synthesized by a method previously developed in this laboratory. ^1N,N-Bis(carboxymethyl)-L-lysine hydrate was purchased from Fluka and used as received. ^1H and ^13C NMR spectra were acquired on either a Varian 300 Mhz or a Varian 500 MHz spectrometer and referenced to internal standards. IR spectra were collected on an Avatar 360 FT-IR instrument. Melting points were measured with a Mel-Temp apparatus. Fluorescence spectra were obtained on a Hitachi F-3020 spectrofluorimeter, and UV/vis spectra were acquired on a Cary 1E spectrophotometer. Low-resolution mass spectra were collected on an Agilent 1100 Series LC/MSD system. High-resolution mass spectra were provided by staff at the MIT Department of Chemistry Instrumentation Facility. Preliminary cell images were acquired with a Nikon Eclipse TS100 microscope equipped with an RT Diagnostics camera with illumination provided by a Chiu Mercury 100 W lamp. Magnification was 20×. The cell imaging system was operated with Spot Advanced software. Fluorescence images were obtained using a FITC-HYQ filter cube (excitation 460-500 nm, bandpass 510-560 nm). Select cell images were acquired with a LSM510 confocal microscope.
Aqueous solutions were prepared with Millipore water. A 2.25 mM stock solution of NTA-DCF in DMSO was prepared, separated into aliquots, stored at −25° C., and thawed in the dark immediately before use. All spectroscopic data were collected in a pH 7 buffer solution of 50 mM piperazine-N,N′-bis(2-ethanesulfonic acid) (PIPES) and 100 mM KCl unless noted otherwise. Solution magnetic susceptibilities were measured by the Evan's method. Spectroscopic data were taken at room temperature (22° C.). Quantum yields were measured relative to fluorescein in 0.1 M NaOH (Φ=0.95).
The photophysical properties of the signaling entity were measured to observe the effect that introduction of the NTA functionality may have on the absorbance and/or emission of the signaling entity.

[2] = test system: cell cultures (nuclei stained with Hoechst 33285); test: Nuclear morphology study of NTA-DCF toxicity; assay type: cell-based
Protocol: Cells were incubated with either NTA-DCF or PBS for five min, washed twice with PBS, and fixed for 5 min with 4% p-formaldehyde. After fixation, the cells were rinsed four times with PBS (5 min each wash). Hoechst 33285 dye (Molecular Probes) was added to the second rinse such that the final concentration reached 2 μg/ml.

HEK 293-T cells = test: Cell permeability of living HEK 293-T cells; assay type: in vitro ADME; conditions: alone or as its Ni^2+ adduct, 5 μM, 5 min, 22° C., PBS
Protocol: (§1) The cells as described in Example 3 were used for labeling with NTA-DCF two days after transfection with plasmid. Immediately prior to labeling, the cells were washed once with PBS. A stock solution of complexed Ni^2+-NTA-DCF was prepared by mixing 2.5 mM NiCl2 and 2.5 mM NTA-DCF in a 1:1 ratio in PBS. HeLa and HEK 293-T cells were each washed once with PBS, then incubated with 5 μM Ni^2+-NTA-DCF for 5 min at 22° C. in PBS. The cells were subsequently rinsed twice with PBS, fixed with 4% paraformaldehyde for 5 min, washed with two portions of PBS, and mounted using Vectashield anti-fading reagent (Vector Labs). As a negative control, a cell sample was incubated with NTA-DCF without added Ni^2+. In order to gauge the reversibility of staining, 5 mM EDTA was added to a sample of cells stained with 5 μM NTA-DCF and 5 μM Ni^2+. […] This impermeability can be exploited to label and image selectively proteins on the extracellular side of the cell membrane. The NTA-DCF composition was premixed with an equimolar concentration of NiCl2, and the mixture was added to a sample containing either HeLa or HEK 293-T cells.

[3] = test system: polyhistidine sequences on HeLa cells transfected with pDisplay-6×His; test: Fluorescent labeling of extracellular His6 tags on transfected HeLa cells (confocal microscopy); assay type: cell-based
Protocol: (§2) This example describes the incorporation of an affinity tag within a target analyte (e.g., a cell). A polyhistidine affinity tag was incorporated within a plasmid, which was then used for transfection with the target cell. pDisplay-6×His was constructed by introduction of an oligonucleotide encoding for a His6 tag (5′-CATCATCATCATCATCAT-3′) into a pDisplay plasmid (Invitrogen) digested with BglII and SalI.
(§3) Both HeLa and HEK 293-T cells were cultured in Dulbecco's Modified Eagle Medium (DMEM) supplemented with 10% fetal calf serum (FCS, Invitrogen), glutamine (2 mM), Penicillin (100 units/mL) and Streptomycin (100 μg/mL). The cells were passed and plated on 18 mm glass coverslips coated with 0.2% gelatin 36 hours before transfection. […]
(§4) The fluorescently-labeled cells may be monitored by confocal microscopy. Confocal images of cells (NTA-DCF staining and mRFP fluorescence) were obtained with a Zeiss LSM510 microscope equipped with a 100× objective. […] Images of cells stained with Hoechst 33285 were obtained with a Zeiss Axioscope fluorescence microscope equipped with a 40× objective and a Hamamatsu digital camera. […]
(§5) A metal chelator was added to observe the effect on binding of NTA-DCF probe to the target cell. […] In the absence of EDTA or a similar metal scavenging agent, the label-protein construct persisted for at least 20 min after washing, but its stability has not yet been fully assessed.

[4] = test system: polyhistidine sequences on HEK 293-T cells transfected with pDisplay-6×His; test: Fluorescent labeling of extracellular His6 tags on transfected HEK 293-T cells (confocal microscopy); assay type: cell-based
Protocol: as §2, §3, §4, §5

HeLa cells = test: Cell permeability of living HeLa cells; assay type: in vitro ADME; conditions: alone or as its Ni^2+ adduct, 5 μM, 5 min, 22° C., PBS
Protocol: as §1

[5] = pDisplay-6×His, premixed with equimolar NiCl2

Compound | Quantum yield Φ ([1]; 50 mM PIPES, 100 mM KCl) | Emission λmax ([1]; pH 7 buffer) [nm] | Toxicity (nuclear morphology study) ([2]; 5-μM dose, five min incubation, FIG. 7) | Change of size and shape of nuclei ([2]; addition of NTA-DCF, five min, Hoechst staining) | Decrease in fluorescence emission upon addition of NiCl2 ([1]; 50 mM PIPES, 100 mM KCl, pH 7.0, FIG. 2) [%] | Quantum yield Φ after chelation of a paramagnetic metal ion ([1]; after chelation of Ni^2+, relative to fluorescein in 0.1 M NaOH) | Extinction coefficient ε ([1]; at 504 nm) [M⁻¹ cm⁻¹] | Absorption band ([1]; pH 7 buffer) [nm] | melting point | Entry into cells (HEK 293-T cells) | Binding of the probe when Ni^2+ is unavailable ([3]; 5 μM NTA-DCF without NiCl2, 5 min, FIG. 4B) | Fluorescent labeling of polyhistidine sequences on extracellular plasma membrane surface [3, 5] | Binding of the probe when the polyhistidine tag is not expressed ([4]; pDisplay without His6 tags, 5 μM NTA-DCF and 5 μM NiCl2, FIG. 5B) | Fluorescent labeling of polyhistidine sequences on extracellular plasma membrane surface [4, 5] | Entry into cells (HeLa cells)
O=C1OC2(c3cc(Cl)c(O)cc3Oc3cc(O)c(Cl)cc32)c2ccccc21 [2′,7′-dichlorofluorescein, reference compound] | 0.88 | 526 |  |  |  |  |  |  |  |  |  |  |  |  | 
O=C(O)CN(CC(=O)O)C(CCCCNC(=O)c1ccc(C(=O)O)c(-c2c3cc(Cl)c(=O)cc-3oc3cc(O)c(Cl)cc23)c1)C(=O)O (centres unmarked) [NTA-DCF, N-[5-(Bis-carboxymethyl-amino)-5-carboxy-pentyl]-2-(2,7-dichloro-6-hydroxy-3-oxo-3H-xanthen-9-yl)-terephthalamic acid] | 0.78 | 527 | not toxic | Neither the size nor shapes of the nuclei change | 5 | 0.72 | 86000 | 504 | 182 °C (dec.) | not enter | blocked | fluorescently label | blocked | fluorescently label | not enter
